For test [1], the system named is ISC-enriched organoids. The test can be described thus: Primary screen, 384-well 2.5-D organoid differentiation (ENR+CD, 6 days, Target Selective Inhibitor Library, vs whole-plate median): ATP (CellTiter-Glo 3D, CTG). The following applies: for Dose.FC.CTG: ENR+CD, 6 days, FC vs plate median; for Z.CTG: standard z score of FC. Background: In ATP-based viability assays light output follows the ATP content of the culture.

Test [2] has as its system ISC-enriched organoids. The test is described as follows: Primary screen, 384-well 2.5-D organoid differentiation (ENR+CD, 6 days): basal lysozyme secretion (LYZ.NS). Format: cell-based, murine. The following applies: for Dose.FC.LYZ.NS: ENR+CD, 6 days, FC vs plate median; for Z.LYZ.NS: standard z score of FC. From the text: (§1) High-throughput screening.
Test [3] concerns ISC-enriched organoids. The test can be described thus: Primary screen, 384-well 2.5-D organoid differentiation (ENR+CD, 6 days): carbachol-induced lysozyme secretion (LYZ.S). The following applies: ENR+CD, 6 days, FC vs plate median. Format: cell-based, murine.
From the text: as §1

For the molecule `COc1ccc(C[C@@H](C)NC[C@H](O)c2ccc(O)c(NC=O)c2)cc1.COc1ccc(C[C@@H](C)NC[C@H](O)c2ccc(O)c(NC=O)c2)cc1.O=C(O)/C=C/C(=O)O` [Formoterol Hemifumarate], the Dose.FC.CTG is 0.294 log 2 fold change with ISC-enriched organoids [1] (Dose 0.08 uM), 0.265 log 2 fold change in the test with ISC-enriched organoids [1] (Dose 0.40 uM), 0.242 log 2 fold change in the test with ISC-enriched organoids [1] (Dose 2.00 uM) and 0.253 log 2 fold change in the test with ISC-enriched organoids [1] (Dose 10.00 uM). For the same molecule, the Z.CTG with ISC-enriched organoids [1] (Dose 0.08 uM) came out at 0.703; with ISC-enriched organoids [1] (Dose 0.40 uM), 0.633; with ISC-enriched organoids [1] (Dose 2.00 uM), 0.578; with ISC-enriched organoids [1] (Dose 10.00 uM), 0.604. Besides, the Dose.FC.LYZ.NS in the test on ISC-enriched organoids [2] (Dose 0.08 uM) is recorded as 0.145 log 2 fold change; with ISC-enriched organoids [2] (Dose 0.40 uM) it was 0.073 log 2 fold change; in the test with ISC-enriched organoids [2] (Dose 2.00 uM) it was 0.048 log 2 fold change; in the test with ISC-enriched organoids [2] (Dose 10.00 uM) it was 0.013 log 2 fold change. Also, the Z.LYZ.NS amounted to 1.263 in the test on ISC-enriched organoids [2] (Dose 0.08 uM), 0.638 in the test on ISC-enriched organoids [2] (Dose 0.40 uM), 0.420 in the test with ISC-enriched organoids [2] (Dose 2.00 uM) and 0.114 in the test with ISC-enriched organoids [2] (Dose 10.00 uM). In addition, the Dose.FC.LYZ.S was determined as 0.206 log 2 fold change with ISC-enriched organoids [3] (Dose 0.08 uM), 0.293 log 2 fold change in the test with ISC-enriched organoids [3] (Dose 0.40 uM), 0.090 log 2 fold change in the test on ISC-enriched organoids [3] (Dose 2.00 uM) and 0.011 log 2 fold change in the test on ISC-enriched organoids [3] (Dose 10.00 uM).
`COc1cc(Nc2ncc(F)c(Nc3ccc4c(n3)N(COP(=O)(O)O)C(=O)C(C)(C)O4)n2)cc(OC)c1OC` [Fostamatinib (R788)]: the Dose.FC.CTG is 0.232 log 2 fold change in the test with ISC-enriched organoids [1] (Dose 0.08 uM), −0.052 log 2 fold change with ISC-enriched organoids [1] (Dose 0.40 uM), −0.231 log 2 fold change with ISC-enriched organoids [1] (Dose 2.00 uM) and −0.881 log 2 fold change in the test with ISC-enriched organoids [1] (Dose 10.00 uM). The Z.CTG with ISC-enriched organoids [1] (Dose 0.08 uM) is 0.554; with ISC-enriched organoids [1] (Dose 0.40 uM), −0.123; in the test on ISC-enriched organoids [1] (Dose 2.00 uM) it was −0.552; in the test with ISC-enriched organoids [1] (Dose 10.00 uM), −2.105. Further, the Dose.FC.LYZ.NS in the test on ISC-enriched organoids [2] (Dose 0.08 uM) is 0.119 log 2 fold change; with ISC-enriched organoids [2] (Dose 0.40 uM), −0.025 log 2 fold change; in the test with ISC-enriched organoids [2] (Dose 2.00 uM) it was −0.099 log 2 fold change; in the test with ISC-enriched organoids [2] (Dose 10.00 uM) it was −0.234 log 2 fold change. Also, the Z.LYZ.NS is 1.033 with ISC-enriched organoids [2] (Dose 0.08 uM), −0.217 in the test with ISC-enriched organoids [2] (Dose 0.40 uM), −0.860 in the test with ISC-enriched organoids [2] (Dose 2.00 uM) and −2.036 with ISC-enriched organoids [2] (Dose 10.00 uM). Moreover, the Dose.FC.LYZ.S is given as 0.235 log 2 fold change in the test on ISC-enriched organoids [3] (Dose 0.08 uM), 0.156 log 2 fold change in the test on ISC-enriched organoids [3] (Dose 0.40 uM), −0.015 log 2 fold change with ISC-enriched organoids [3] (Dose 2.00 uM) and −0.350 log 2 fold change with ISC-enriched organoids [3] (Dose 10.00 uM).
`CC(C)NC[C@@H](C(=O)N1CCN(c2ncnc3c2[C@H](C)C[C@H]3O)CC1)c1ccc(Cl)cc1` [GDC-0068]: the Dose.FC.CTG in the test on ISC-enriched organoids [1] (Dose 0.08 uM) is 0.042 log 2 fold change; in the test with ISC-enriched organoids [1] (Dose 0.40 uM), 0.118 log 2 fold change; in the test on ISC-enriched organoids [1] (Dose 2.00 uM), 0.184 log 2 fold change; in the test with ISC-enriched organoids [1] (Dose 10.00 uM), −0.100 log 2 fold change. The Z.CTG in the test on ISC-enriched organoids [1] (Dose 0.08 uM) is given as 0.099; in the test on ISC-enriched organoids [1] (Dose 0.40 uM), 0.283; in the test on ISC-enriched organoids [1] (Dose 2.00 uM), 0.439; in the test with ISC-enriched organoids [1] (Dose 10.00 uM) it was −0.238. Besides, the Dose.FC.LYZ.NS in the test on ISC-enriched organoids [2] (Dose 0.08 uM) is reported as 0.036 log 2 fold change; in the test on ISC-enriched organoids [2] (Dose 0.40 uM) it was 0.054 log 2 fold change; in the test with ISC-enriched organoids [2] (Dose 2.00 uM), −0.077 log 2 fold change; in the test with ISC-enriched organoids [2] (Dose 10.00 uM), −0.185 log 2 fold change. In addition, the Z.LYZ.NS was 0.311 in the test with ISC-enriched organoids [2] (Dose 0.08 uM), 0.469 in the test on ISC-enriched organoids [2] (Dose 0.40 uM), −0.675 in the test with ISC-enriched organoids [2] (Dose 2.00 uM) and −1.613 with ISC-enriched organoids [2] (Dose 10.00 uM). For the same molecule, the Dose.FC.LYZ.S is on record as 0.076 log 2 fold change in the test on ISC-enriched organoids [3] (Dose 0.08 uM), 0.087 log 2 fold change in the test on ISC-enriched organoids [3] (Dose 0.40 uM), −0.059 log 2 fold change with ISC-enriched organoids [3] (Dose 2.00 uM) and −0.319 log 2 fold change in the test on ISC-enriched organoids [3] (Dose 10.00 uM).
